How the values were obtained:
[1] = test system: KMS11 (human myeloma cell line); test: Cell proliferation assay (CellTiter-Glo) in KMS11 cells; type: cell-based; conditions: KMS-11, 72 h, Table 5, 3 days, read-out: KMS11-luc EC50
Procedure: KMS11 (human myeloma cell line), were cultured in IMDM supplemented with 10% FBS, sodium pyruvate and antibiotics. Cells were plated in the same medium at a density of 2000 cells per well into 96 well tissue culture plates, with outside wells vacant, on the day of assay.
Test compounds supplied in DMSO were diluted into DMSO at 500 times the desired final concentrations before dilution into culture media to 2 times final concentrations.
After 3 days plates were equilibrated to room temperature and equal volume of CellTiter-Glow Reagent (Promega) was added to the culture wells. The plates were agitated briefly and luminescent signal was measured with luminometer.

Pim1 kinase = Pim1 kinase (Homo sapiens, UniProt P11309); test: Pim1 AlphaScreen assay (high ATP)
Pim1 kinase, sequence (P11309 whole entry): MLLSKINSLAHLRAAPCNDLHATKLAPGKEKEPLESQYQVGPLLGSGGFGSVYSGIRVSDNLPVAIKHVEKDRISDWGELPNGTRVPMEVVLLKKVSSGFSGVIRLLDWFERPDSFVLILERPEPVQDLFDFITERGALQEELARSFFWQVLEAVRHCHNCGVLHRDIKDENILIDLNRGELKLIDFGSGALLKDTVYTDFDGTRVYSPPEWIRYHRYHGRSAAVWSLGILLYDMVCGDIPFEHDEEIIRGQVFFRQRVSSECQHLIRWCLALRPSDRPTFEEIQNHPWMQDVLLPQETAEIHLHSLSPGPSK

Pim2 kinase = Pim2 kinase (Homo sapiens, UniProt Q9P1W9); test: Pim2 AlphaScreen assay (high ATP)
Pim2 kinase, sequence (Q9P1W9 whole entry): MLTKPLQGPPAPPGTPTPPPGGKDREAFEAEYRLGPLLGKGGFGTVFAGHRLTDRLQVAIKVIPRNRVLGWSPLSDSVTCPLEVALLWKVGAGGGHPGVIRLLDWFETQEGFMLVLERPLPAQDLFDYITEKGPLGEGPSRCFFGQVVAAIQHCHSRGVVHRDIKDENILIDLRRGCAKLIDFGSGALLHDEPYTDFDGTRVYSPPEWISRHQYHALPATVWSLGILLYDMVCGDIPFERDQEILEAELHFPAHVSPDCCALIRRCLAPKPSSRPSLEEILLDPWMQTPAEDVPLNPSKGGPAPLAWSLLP
Procedure: (§1) The activity of Pim 1, Pim 2, & Pim 3 is measured using a homogeneous bead based system quantifying the amount of phosphorylated peptide substrate resulting from kinase-catalyzed phosphoryl transfer to a peptide substrate. Compounds to be tested are dissolved in 100% DMSO and directly distributed to a white 384-well plate at 0.25 μl per well. […] This is followed by the addition of 5 μl/well of Pim 1, Pim 2 or Pim 3 kinase in assay buffer (concentrations described below). Final assay concentrations (described below) are in 2.5% DMSO. The reactions are performed for ˜2 hours, then stopped by the addition of 10 μl of 0.75 μg/ml anti-phospho Ser/Thr antibody (Cell Signaling), 10 μg/ml Protein A AlphaScreen beads (Perkin Elmer), and 10 μg/ml streptavidin coated AlphaScreen beads in stop/detection buffer (50 mM EDTA, 95 mM Tris, pH=7.5, 0.01% Tween-20). The stopped reactions are incubated overnight in the dark. The phosphorylated peptide is detected via an oxygen anion initiated chemiluminescence/fluorescence cascade using the Envision plate reader (Perkin Elmer).

Pim3 kinase = Pim3 kinase (Homo sapiens, UniProt Q86V86); test: Pim3 AlphaScreen assay (high ATP)
Procedure: as §1

In the case of `COCCOc1cc(F)c(-c2nc(C(=O)Nc3cnccc3[C@H]3C[C@@H](N)[C@](C)(O)[C@@H](C)C3)ccc2F)c(F)c1` [Example 7, N-(4-((1R,3R,4R,5S)-3-amino-4-hydroxy-4,5-dimethylcyclohexyl)pyridin-3-yl)-6-(2,6-difluoro-4-(2-methoxyethoxy)phenyl)-5-fluoropicolinamide], the EC50 [1] is reported as 57 nM, the IC50 (Pim1 kinase) is reported as 0.08 nM and the IC50 (Pim2 kinase) is reported as 6.31 nM. For the same compound, the IC50 (Pim3 kinase) was 2.09 nM.

`CSc1cc(F)c(-c2nc(C(=O)Nc3cnccc3[C@H]3C[C@@H](N)[C@](C)(O)[C@@H](C)C3)ccc2F)c(F)c1` [Example 8, N-(4-((1R,3R,4R,5S)-3-amino-4-hydroxy-4,5-dimethylcyclohexyl)pyridin-3-yl)-6-(2,6-difluoro-4-(methylthio)phenyl)-5-fluoropicolinamide] gave an EC50 [1] of 234 nM, an IC50 (Pim1 kinase) of 0.08 nM and an IC50 (Pim2 kinase) of 6.98 nM. The IC50 (Pim3 kinase) was 2.04 nM.

`C[C@H]1C[C@@H](c2ccncc2NC(=O)c2ccc(F)c(-c3c(F)cc(S(C)(=O)=O)cc3F)n2)C[C@@H](O)[C@]1(C)O` [Example 9, 6-(2,6-difluoro-4-(methylsulfonyl)phenyl)-N-(4-((1R,3R,4R,5S)-3,4-dihydroxy-4,5-dimethylcyclohexyl)pyridin-3-yl)-5-fluoropicolinamide] showed an EC50 [1] of 4700 nM, an IC50 (Pim1 kinase) of 8.54 nM and an IC50 (Pim2 kinase) of 1010 nM. The IC50 (Pim3 kinase) was 1620 nM.

Compound `C[C@@H]1C[C@H](c2ccncc2NC(=O)c2ccc(F)c(-c3c(F)cc(S(C)(=O)=O)cc3F)n2)C[C@H](O)[C@@]1(C)O` [Example 10, 6-(2,6-difluoro-4-(methylsulfonyl)phenyl)-N-(4-((1S,3S,4S,5R)-3,4-dihydroxy-4,5-dimethylcyclohexyl)pyridin-3-yl)-5-fluoropicolinamide] has an EC50 [1] of over 10000 nM, an IC50 (Pim1 kinase) of 14.6 nM and an IC50 (Pim2 kinase) of 7110 nM. The IC50 (Pim3 kinase) was 4150 nM.

`Cc1cc(F)c(-c2nc(C(=O)Nc3cnccc3[C@H]3C[C@@H](N)[C@](C)(O)[C@@H](C)C3)ccc2F)c(F)c1` [Example 13, N-(4-((1R,3R,4R,5S)-3-amino-4-hydroxy-4,5-dimethylcyclohexyl)pyridin-3-yl)-6-(2,6-difluoro-4-methylphenyl)-5-fluoropicolinamide] gave an EC50 [1] of 42 nM, an IC50 (Pim1 kinase) of 0.07 nM and an IC50 (Pim2 kinase) of 4.33 nM. The IC50 (Pim3 kinase) was 1.16 nM.

For `Cc1cc(F)c(-c2nc(C(=O)Nc3cnccc3[C@H]3C[C@@H](C)[C@](C)(O)[C@@H](N)C3)ccc2F)c(F)c1` [Example 14, N-(4-((1S,3S,4S,5R)-3-amino-4-hydroxy-4,5-dimethyl-cyclohexyl)pyridin-3-yl)-6-(2,6-difluoro-4-methylphenyl)-5-fluoropicolinamide], the EC50 [1] was 5040 nM, the IC50 (Pim1 kinase) was 13.7 nM and the IC50 (Pim2 kinase) was 776 nM. For the same compound, the IC50 (Pim3 kinase) was 231 nM.

With `C[C@H]1C[C@@H](c2ccncc2NC(=O)c2nc(-c3c(F)cccc3F)ccc2N)C[C@@H](O)[C@@]1(O)CF` [Example 18, 3-amino-6-(2,6-difluorophenyl)-N-(4-((1R,3R,4R,5S)-4-(fluoromethyl)-3,4-dihydroxy-5-methylcyclohexyl)pyridin-3-yl) picolinamide] the EC50 [1] was 714 nM, the IC50 (Pim1 kinase) was 0.67 nM and the IC50 (Pim2 kinase) was 47 nM. For the same compound, the IC50 (Pim3 kinase) was 10.2 nM.

Compound `COc1cc(F)c(-c2nc(C(=O)Nc3cnccc3[C@H]3C[C@@H](O)[C@](C)(O)[C@@H](C)C3)ccc2F)c(F)c1` [Example 22, 6-(2,6-difluoro-4-methoxyphenyl)-N-(4-((1R,3R,4R,5S)-3,4-dihydroxy-4,5-dimethylcyclohexyl)pyridin-3-yl)-5-fluoropicolinamide] has an EC50 [1] of 382 nM, an IC50 (Pim1 kinase) of 0.85 nM and an IC50 (Pim2 kinase) of 201 nM. For the same compound, the IC50 (Pim3 kinase) was 39.5 nM.

With `CC(C)Oc1cc(F)c(-c2nc(C(=O)Nc3cnccc3[C@H]3C[C@@H](N)[C@](C)(O)[C@@H](C)C3)ccc2F)c(F)c1` [Example 64, N-(4-((1R,3R,4R,5S)-3-amino-4-hydroxy-4,5-dimethylcyclohexyl)pyridin-3-yl)-6-(2,6-difluoro-4-isopropoxyphenyl)-5-fluoropicolinamide] the EC50 [1] was 165 nM, the IC50 (Pim1 kinase) was 0.02 nM and the IC50 (Pim2 kinase) was 1.54 nM. The IC50 (Pim3 kinase) was 0.54 nM.

`C[C@H]1C[C@@H](c2ccncc2NC(=O)c2ccc(F)c(-c3c(F)cc(OC4CCOCC4)cc3F)n2)C[C@@H](N)[C@]1(C)O` [Example 65, N-(4-((1R,3R,4R,5S)-3-amino-4-hydroxy-4,5-dimethylcyclohexyl)pyridin-3-yl)-6-(2,6-difluoro-4-(tetrahydro-2H-pyran-4-yloxy)phenyl)-5-fluoropicolinamide] showed an EC50 [1] of 38 nM, an IC50 (Pim1 kinase) of 0.03 nM and an IC50 (Pim2 kinase) of 2.14 nM. For the same compound, the IC50 (Pim3 kinase) was 0.73 nM.

For `C[C@H]1C[C@@H](c2ccncc2NC(=O)c2ccc(F)c(-c3c(F)cc(C(C)(C)O)cc3F)n2)C[C@@H](N)[C@]1(C)O` [Example 66], the EC50 [1] was 13 nM, the IC50 (Pim1 kinase) was 0.03 nM and the IC50 (Pim2 kinase) was 2.92 nM. It also gave an IC50 (Pim3 kinase) of 1.64 nM.

`C[C@H]1C[C@@H](c2ccncc2NC(=O)c2ccc(F)c(-c3c(F)cc(C4CC4)cc3F)n2)C[C@@H](N)[C@]1(C)O` [Example 67, N-(4-((1R,3R,4R,5S)-3-amino-4-hydroxy-4,5-dimethylcyclohexyl)pyridin-3-yl)-6-(4-cyclopropyl-2,6-difluorophenyl)-5-fluoropicolinamide] showed an EC50 [1] of 127 nM, an IC50 (Pim1 kinase) of 0.01 nM and an IC50 (Pim2 kinase) of 2.5 nM. It also gave an IC50 (Pim3 kinase) of 0.96 nM.

`C[C@H]1C[C@@H](c2ccncc2NC(=O)c2ccc(F)c(-c3c(F)cc(C4(F)COC4)cc3F)n2)C[C@@H](N)[C@]1(C)O` [Example 69, N-(4-((1R,3R,4R,5S)-3-amino-4-hydroxy-4,5-dimethylcyclohexyl)pyridin-3-yl)-6-(2,6-difluoro-4-(3-fluorooxetan-3-yl)phenyl)-5-fluoropicolinamide] gave an EC50 [1] of 423 nM, an IC50 (Pim1 kinase) of 0.09 nM and an IC50 (Pim2 kinase) of 6.42 nM. The IC50 (Pim3 kinase) was 4.2 nM.

Compound `C[C@H]1C[C@@H](c2ccncc2NC(=O)c2ccc(F)c(-c3c(F)cc(C4(F)CCOCC4)cc3F)n2)C[C@@H](N)[C@]1(C)O` [Example 70, N-(4-((1R,3R,4R,5S)-3-amino-4-hydroxy-4,5-dimethylcyclohexyl)pyridin-3-yl)-6-(2,6-difluoro-4-(4-fluorotetrahydro-2H-pyran-4-yl)phenyl)-5-fluoropicolinamide] has an EC50 [1] of 136 nM, an IC50 (Pim1 kinase) of 0.04 nM and an IC50 (Pim2 kinase) of 2.21 nM. For the same compound, the IC50 (Pim3 kinase) was 1.73 nM.

`C[C@H]1C[C@@H](c2ccncc2NC(=O)c2ccc(F)c(-c3c(F)cc(C4CCOCC4)cc3F)n2)C[C@@H](N)[C@]1(C)O` [Example 71, N-(4-((1R,3R,4R,5S)-3-amino-4-hydroxy-4,5-dimethylcyclohexyl)pyridin-3-yl)-6-(2,6-difluoro-4-(tetrahydro-2H-pyran-4-yl)phenyl)-5-fluoropicolinamide] showed an EC50 [1] of 81 nM, an IC50 (Pim1 kinase) of 0.02 nM and an IC50 (Pim2 kinase) of 1.47 nM. The IC50 (Pim3 kinase) was 0.72 nM.

Compound `C[C@H]1C[C@@H](c2ccncc2NC(=O)c2ccc(F)c(-c3c(F)cc(C(C)(C)O)cc3F)n2)C[C@@H](O)[C@]1(C)O` [Example 73, 6-(2,6-difluoro-4-(2-hydroxypropan-2-yl)phenyl)-N-(4-((1R,3R,4R,5S)-3,4-dihydroxy-4,5-dimethylcyclohexyl)pyridin-3-yl)-5-fluoropicolinamide] has an EC50 [1] of 189 nM, an IC50 (Pim1 kinase) of 0.42 nM and an IC50 (Pim2 kinase) of 156 nM. For the same compound, the IC50 (Pim3 kinase) was 63.1 nM.

`C[C@@H]1C[C@H](c2ccncc2NC(=O)c2ccc(F)c(-c3c(F)cc(C(C)(C)O)cc3F)n2)C[C@H](O)[C@@]1(C)O` [Example 74, 6-(2,6-difluoro-4-(2-hydroxypropan-2-yl)phenyl)-N-(4-((1S,3S,4S,5R)-3,4-dihydroxy-4,5-dimethylcyclohexyl)pyridin-3-yl)-5-fluoropicolinamide] was tested, and the EC50 [1] was 3470 nM, the IC50 (Pim1 kinase) was 18.8 nM and the IC50 (Pim2 kinase) was 6340 nM. For the same compound, the IC50 (Pim3 kinase) was 2870 nM.

Compound `C[C@@H]1C[C@H](c2ccncc2NC(=O)c2ccc(F)c(-c3c(F)cc(C4(O)COC4)cc3F)n2)C[C@H](O)[C@@]1(C)O` [Example 75] has an EC50 [1] of 5780 nM, an IC50 (Pim1 kinase) of 39.1 nM and an IC50 (Pim2 kinase) of 8640 nM. For the same compound, the IC50 (Pim3 kinase) was 5900 nM.

In the case of `C[C@H]1C[C@@H](c2ccncc2NC(=O)c2ccc(F)c(-c3c(F)cc(C4(O)COC4)cc3F)n2)C[C@@H](O)[C@]1(C)O` [Example 76], the EC50 [1] is reported as 1140 nM, the IC50 (Pim1 kinase) is reported as 0.82 nM and the IC50 (Pim2 kinase) is reported as 264 nM. For the same compound, the IC50 (Pim3 kinase) was 117 nM.

`C[C@H]1C[C@@H](c2ccncc2NC(=O)c2ccc(F)c(-c3c(F)cc(CN4CCCC4=O)cc3F)n2)C[C@@H](O)[C@]1(C)O` [Example 77, 6-(2,6-difluoro-4-((2-oxopyrrolidin-1-yl)methyl)phenyl)-N-(4-((1R,3R,4R,5S)-3,4-dihydroxy-4,5-dimethylcyclohexyl)pyridin-3-yl)-5-fluoropicolinamide] gave an EC50 [1] of 136 nM, an IC50 (Pim1 kinase) of 0.97 nM and an IC50 (Pim2 kinase) of 93.7 nM. The IC50 (Pim3 kinase) was 83.3 nM.

In the case of `C[C@@H]1C[C@H](c2ccncc2NC(=O)c2ccc(F)c(-c3c(F)cc(CN4CCCC4=O)cc3F)n2)C[C@H](O)[C@@]1(C)O` [Example 78, 6-(2,6-difluoro-4-((2-oxopyrrolidin-1-yl)methyl)phenyl)-N-(4-((1S,3S,4S,5R)-3,4-dihydroxy-4,5-dimethylcyclohexyl)pyridin-3-yl)-5-fluoropicolinamide], the EC50 [1] is reported as over 10000 nM, the IC50 (Pim1 kinase) is reported as 18.7 nM and the IC50 (Pim2 kinase) is reported as 1570 nM. It also gave an IC50 (Pim3 kinase) of 969 nM.

In the case of `C[C@@H]1C[C@H](c2ccncc2NC(=O)c2ccc(F)c(-c3c(F)cc(C4(O)CCCC4)cc3F)n2)C[C@H](O)[C@@]1(C)O` [Example 79, 6-(2,6-difluoro-4-(1-hydroxycyclopentyl)phenyl)-N-(4-((1S,3S,4S,5R)-3,4-dihydroxy-4,5-dimethylcyclohexyl)pyridin-3-yl)-5-fluoropicolinamide], the EC50 [1] is reported as over 10000 nM, the IC50 (Pim1 kinase) is reported as 6.73 nM and the IC50 (Pim2 kinase) is reported as 619 nM. For the same compound, the IC50 (Pim3 kinase) was 470 nM.

— US20120225061A1, “TETRASUBSTITUTED CYCLOHEXYL COMPOUNDS AS KINASE INHIBITORS” (priority 2011, published 2012)
